Article PMC516463 (Evidence-based Complementary and Alternative Medicine, 2004)

System: HIV-1
Conditions: 10 μM, control inhibitor of infection

Cc1cn([C@H]2C[C@H](N=[N+]=[N-])[C@@H](CO)O2)c(=O)[nH]c1=O [AZT]
Inhibition of HIV-1 infection of MAGIC-5B cells (in words): totally suppressed
